From PMC10508264, “Exploring the antioxidant, antimicrobial, cytotoxic and biothermodynamic properties of novel morpholine derivative bioactive Mn(II), Co(II) and Ni(II) complexes – combined experimental and theoretical measurements towards DNA/BSA/SARS-CoV-2 3CL^Pro” (RSC Medicinal Chemistry, 2023)
Read-outs that look alike come from different tables or passages of the source.

Experiment: Shake flask n-octanol/deionized water partition (lipophilicity)
Assay type: physicochemical
Conditions: for pKa: Henderson–Hasselbalch; for Concentration, aqueous layer: deionised water phase; for Concentration, organic layer: n-octanol phase
Method: The lipophilicity of all complexes and free ligands was evaluated by the flask-shaking method through n-octanol/deionized water phase partition.[49–51] The partition coefficients (log Po/w) and distribution coefficients (log Do/w) of all substances were also acquired from molar absorption coefficients, conductivity, and pH measurements.[52–54]
Lipophilicity is an imperative factor in anticancer and antimicrobial properties, particularly the necessity for a relevant hydrophobicity to assist the crossing of the cell membrane. This is also supported for the characterization of a drug because it has a fundamental impact on the pharmacokinetic profile and is associated with its capacity to enter tumor cells through passive diffusion.[139] […] This is probably due to the fact that hydrophobic effects play a crucial role not only in the intramolecular interactions that take place between a medication and its target site, but also in the distribution of a drug within a biosystem, its interaction with rival binding sites, passage across and into membranes, and its interaction with metabolizing enzymes. However, the “accurate” model system for hydrophobic effects is octanol/water. Hydrophobicity (lipophilicity) is associated with the partition coefficient (log P), which is a measure of the ability of the solute to go into two immiscible phases (polar and non-polar environments). Also, it refers to the concentration of unionized species of compounds. Generally, the ability of a drug to penetrate with high permeability into lipid membranes depends on the solubility and partition coefficient of the drug. Furthermore, the partition coefficient is extensively employed in the discovery of new medications, chromatography, physical chemistry, environmental science and other fields. Since lipophilicity is one of the major parameters affecting important biological processes, it can influence drug intake via the absorption, distribution, metabolism, excretion, and toxicity (ADMET) characteristics of the substances.[140] Additionally, the ability of a molecule or drug to passively diffuse across cell membranes has been linked to its lipophilicity, which is a measure of the solubility of the substance in aqueous and lipid-like environments.[141] In general, chemotherapeutic medications often need to have certain solubility in the lipid phase in order to be absorbed by the biofilm. Meanwhile, the intracellular milieu is a water-soluble environment once the drug has entered the cell. The medicine must be water-soluble for it to have any anticancer effects. […] Conversely, the cytotoxic properties of a synthesized complex are not only associated with its DNA/protein binding affinity but may be also influenced by its lipophilicity. Additionally, molecules with higher lipophilicity have increased permeability into cell membranes, which determines a drug's cytotoxicity. […] However, more positive partition coefficient values (log P > 0) correspond to higher lipophilicity, and more negative values (log P < 0) correspond to higher hydrophilicity. Generally, log P is measured between −3 and +10; if […], the substance has an extremely hydrophilic character, and if log P > +10, the substance has an extremely hydrophobic character. In addition, the aromatic ligands get larger in size and become more hydrophobic. […] The present complexes (1–3) have higher values of log P and log D compared to the free ligand (Table 11). However, when log P > ±2, the drug will be harder to excrete from the body due to its high lipophilic character, which also creates toxicity due to accumulation. […] (Table 11). […] The observed results are also well correlated with cytotoxic properties. Moreover, in an equilibrium two-component system, the partition coefficient (log P) reflects the ratio of neutral solute concentrations in the organic and aqueous phases. As a result, log P expresses the inherent lipophilicity of a compound in the absence of dissociation or ionization. […]

[1] = n-octanol/deionised water, shake flask

Structure (SMILES): [Mn+2].[O-]c1ccccc1N=Cc1ccc(N2CCOCC2)cc1.[O-]c1ccccc1N=Cc1ccc(N2CCOCC2)cc1.c1ccc(-c2ccccn2)nc1 [(1)]
- Concentration, aqueous ions: 238 µM
- Net pH: 3.48
- pKa: 3.42
- Concentration, aqueous layer: 1600 µM
- Concentration, organic layer: 23500 µM
- Log D (n-octanol/deionised water): 1.107
- Log P [1]: 1.166

Structure (SMILES): [Co+2].[O-]c1ccccc1N=Cc1ccc(N2CCOCC2)cc1.[O-]c1ccccc1N=Cc1ccc(N2CCOCC2)cc1.c1ccc(-c2ccccn2)nc1 [(2)]
- Concentration, aqueous ions: 56.6 µM
- Net pH: 4.38
- pKa: 4.36
- Concentration, aqueous layer: 12000 µM
- Concentration, organic layer: 400 µM
- Log D (n-octanol/deionised water): −1.497
- Log P [1]: −1.477

Structure (SMILES): [Ni+2].[O-]c1ccccc1N=Cc1ccc(N2CCOCC2)cc1.[O-]c1ccccc1N=Cc1ccc(N2CCOCC2)cc1.c1ccc(-c2ccccn2)nc1 [(3)]
- Concentration, aqueous ions: 35.7 µM
- Net pH: 4.76
- pKa: 4.75
- Concentration, aqueous layer: 1250 µM
- Concentration, organic layer: 18500 µM
- Log D (n-octanol/deionised water): 1.158
- Log P [1]: 1.170

Structure (SMILES): Oc1ccccc1N=Cc1ccc(N2CCOCC2)cc1 [(HL), 2-(4-morpholinobenzylideneamino)phenol]
- Concentration, aqueous ions: 789 µM
- Net pH: 3.35
- Concentration, aqueous layer: 900 µM
- Concentration, organic layer: 11000 µM
- logD at 24 h (n-octanol/deionised water, pH 7.11): 0.814
- pKa (n-octanol/deionized water (shake flask), pH 3.35, read-out: pKa): 3.08
- logP at 24 h (pH 7.11, n-octanol/deionised water, shake flask): 1.09
